Measurements from patent EP2759295A1, “Foam cell specific Liver X Receptor (LXR) alpha agonist, SIRT1 inhibitors as well as p300 inhibitors as pharmaceutically active agents” (Max-Planck-Gesellschaft zur Förderung der Wissenschaften …, priority 2013, dated 2014).
Read-outs that look alike come from different tables or passages of the source.

How the values were obtained:
HepG2 cells = experiment: Western-Blot analysis of p53 (Lys382) acetylation in HepG2 cells; format: cell-based, human; conditions: 30 µM, 16 hours, 20 µM Etoposide
Procedure: HepG2 cells were seeded in 6-well plates (2.5 x 10^5 cells/well). 48 h later cells were treated with 20 µM Etoposide to induce p53 acetylation and directly afterwards with NP 1 or DMSO (VC) for 16 h. Cells were harvested and separated into cytosolic and nuclear fractions (NE-PER Nuclear and Cytoplasmic Extraction Reagents). Samples were denatured and SDS-PAGE was performed using NuPAGE Novex 4-12% Bis-Tris Gels. Proteins were blotted on nitrocellulose Hybond ECL membrane. Primary antibodies used were β-actin, p53 and acetyl-p53 (Lys382). Secondary antibodies were HRP-conjugated goat anti-rabbit IgG-HRP and goat anti-mouse IgG-HRP. Detection was performed with Western Lightning Plus-ECL solution. Membranes were stripped with Restore Plus Western Blot Stripping Buffer for 15 min.
Densitometry was performed in GelAnalyzer 2010a, which is a software tool to quantitatively measure the optical density. It provides accurate Western-Blot analysis and helps to detect differences which are not visible by the naked eye. Log(p53-Ac/p53-total) was calculated for every sample and statistical analysis was performed.

SIRT1 = molecular target: T1, SIRT1 (Homo sapiens, UniProt Q96EB6); experiment: MALDI-TOF MS deacetylation assay; format: biochemical
T1 construct: purchased Biomol International, Inc. / Enzo Life Sciences / BlueSky BioTech
T1 sequence (Q96EB6 1-747): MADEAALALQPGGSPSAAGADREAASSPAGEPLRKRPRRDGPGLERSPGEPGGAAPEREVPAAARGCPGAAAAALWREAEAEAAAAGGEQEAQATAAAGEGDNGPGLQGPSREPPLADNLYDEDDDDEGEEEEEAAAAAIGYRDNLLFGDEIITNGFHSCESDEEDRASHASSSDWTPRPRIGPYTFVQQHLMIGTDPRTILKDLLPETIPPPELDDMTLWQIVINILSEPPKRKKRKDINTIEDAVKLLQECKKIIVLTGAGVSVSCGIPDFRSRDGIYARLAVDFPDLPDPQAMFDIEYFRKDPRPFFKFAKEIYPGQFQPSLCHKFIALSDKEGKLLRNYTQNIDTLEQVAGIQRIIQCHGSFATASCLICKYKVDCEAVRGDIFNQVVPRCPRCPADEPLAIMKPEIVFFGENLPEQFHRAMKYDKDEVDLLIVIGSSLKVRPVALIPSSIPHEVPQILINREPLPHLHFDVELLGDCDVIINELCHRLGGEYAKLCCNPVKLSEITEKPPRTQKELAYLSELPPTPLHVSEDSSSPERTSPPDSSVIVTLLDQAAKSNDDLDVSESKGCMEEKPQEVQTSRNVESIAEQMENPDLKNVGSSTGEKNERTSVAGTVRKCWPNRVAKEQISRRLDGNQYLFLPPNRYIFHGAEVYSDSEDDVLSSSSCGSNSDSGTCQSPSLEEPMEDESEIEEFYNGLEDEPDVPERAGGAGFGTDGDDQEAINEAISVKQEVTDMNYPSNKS
Procedure: The assay was performed in a 20 µL reaction. 0.5 µM acetylated peptide and 120 µM NAD^+ in reaction buffer (50 mM Tris-acetate (pH 8), 137 mM NaCl, 2.7 mM KCI, 1 mM MgCl2, 5 mM DTT, 0.05 % BSA) were mixed with compound or DMSO (VC). Reactions were initiated by adding 10 nM of SIRT1. After incubation for 30 min at 37°C, reactions were stopped by formic acid and nicotinamide (f.c. 1% and 5 mM, respectively). Reactions were performed with histone H4 peptide and 1% DMSO unless stated otherwise. […]
Acetylated and deacetylated peptides were mixed at different ratios in the respective buffer including stop solution and reaction components except the enzyme. Purification, preparation and MS detection were conducted in parallel to reaction samples. CCs were generated for IC50 value determination but not for the screening.
Peptides were purified by Oasis HLB µElution Plates using a vacuum manifold [S. Sauer et al. J Chromatogr A (2004), 1049, 9-16]. Plate columns were conditioned by 70% ACN and equilibrated with 0.1% TFA. Samples were loaded, desalted by 0.1 % TFA and H2O and eluted in 70% ACN.
For ultra thin layer (UTL), supernatant of saturated CHCA in ACN / H2O (2:1) and 0.1% TFA. was mixed with isopropanol (1:3) and was spread on a ground steel target. After solvent evaporated excess of CHCA was removed from target surface with a tissue [D. Fenyo et al. J Vis Exp (2007), 192]. The matrix used for sample preparation contained saturated CHCA in ACN / 0.1% TFA (1:2) or ACN / H2O (1:2) depending on peptide size [S. L. Cohen et al. Anal Chem (1996), 68, 31-37]. HLB eluted samples and matrix were mixed (1:4) and spotted on the UTL.
Samples were measured automatically (AutoXecute software, Bruker Daltonik GmbH) using an ultraflex II MALDI-TOF mass spectrometer (Bruker Daltonik GmbH) in positive ion reflector mode. Laser power and detector gain were adjusted prior to every automatic run, which were performed in random walk movement.
For assay optimization and IC50 determination, 1000 shots were accumulated in 100 satisfactory shot steps (fuzzy control). At least one peak within a defined mass range had to fulfill the following criteria for the spectra to be accumulated: Absolute (min.) intensity: 800; S/N: 15; peak width: 0.2.
A script (Bruker Daltonik GmbH) was employed to analyze peptide peaks in a batch process (flexAnalysis software, Version 3.0, Bruker Daltonik GmbH). Percentage of de-/acetylation were calculated using the sum of the first four monoisotopic peak intensities. CC was generated by plotting experimental vs. calculated peptide acetylation. Measured sample values were interpolated with CC to determine de-/acetylation values (GraphPad Prism). When no CC was created, peak intensity ratios were generated. Verified single NP screening hits had to pass a peak ratio of ≤ 0.1 (deac/ac).
As IC50 values were not gained at initial velocity conditions, values were corrected by a conversion factor according to Wu et al. (Table 5) [G. Wu et al. J Biomol Screen (2003), 8, 694-700].

foam cells [1] = experiment: cholesterol content in foam cells (Amplex Red Cholesterol Assay); format: cell-based, human; conditions: 10 µM, 48 h
Procedure: (§1) THP-1 monocytes were plated out into 24-well plates (Nunc) at a density of 2 x 10^5 cells/well. After differentiation and treatment cells were lysed with 100 µL lysis buffer (PBS, 0.25 M NaCl, 1% Triton X-100). Total and free cholesterol were determined using the colorimetric enzymatic Amplex Red Cholesterol Assay Kit (Invitrogen). Triglycerides were quantified by Triglyceride Assay Kit (BioVision). For normalisation protein content was determined with Pierce 660 nm Protein Assay Reagent (Thermo Scientific).

macrophages [2] = experiment: triglyceride content in macrophages (Triglyceride Assay Kit); format: cell-based, human; conditions: 10 µM, 48 h
Procedure: as §1

[3] = molecular target: T2, LXRα ligand binding domain (LBD) (Homo sapiens, UniProt Q13133); experiment: dual luciferase reporter gene assay with LXRα ligand binding domain in HEK-293 cells; format: cell-based
T2 construct: expressed in transfected cells; host or cells: HEK-293
T2 sequence (Q13133 164-447): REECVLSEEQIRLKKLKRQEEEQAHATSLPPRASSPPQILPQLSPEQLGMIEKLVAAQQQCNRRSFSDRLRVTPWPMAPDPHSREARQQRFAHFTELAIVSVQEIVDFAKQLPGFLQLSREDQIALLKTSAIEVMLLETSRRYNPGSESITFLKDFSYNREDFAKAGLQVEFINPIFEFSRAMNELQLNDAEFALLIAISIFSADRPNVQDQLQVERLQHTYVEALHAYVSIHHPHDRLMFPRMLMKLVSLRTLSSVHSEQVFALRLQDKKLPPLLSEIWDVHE
Procedure: The ligand binding domain (LBD) of LXRα (amino acids 164 to 447) or LXRβ (amino acids 154 to 461) was cloned into pBIND [Renilla/Amp] vector (Promega). Selection and amplification were performed in E-coli cells. Purification of the plasmids was performed with a plasmid purification kit (Qiagen). For transfection HEK-293 cells were plated in 96-well plates (TPP) at a density of 3.5 x 10^4 cells/well for 24 h. To investigate the ligand binding on LXRα ligand binding domain, 0.04 ng of renilla luciferase coding plasmide pGL4.75 (Promega), 0.04 ng of LXRα-LBD/GAL4-DBD plasmide and 80 ng of firefly luciferase coding plasmide pGL4.31 (Promega) were used in a total volume of 200 µL for each well. In LXRβ binding assay 40 ng of LXRβ-LBD/GAL4-DBD plasmide were applied in each transfection mix. Transfection was carried out for 4 h with Lipofectamine 2000 Transfection Reagent (Invitrogen) in Opti-MEM medium (Invitrogen). Ligand treatment was performed at different concentrations for 24 h. For lysis and detection dual-luciferase reporter gene assay system (Promega) and POLARstar Omega (BMG LABTECH) were used.

foam cells [4] = experiment: siRNA-mediated LXRα/β knockdown in foam cells with qPCR; format: cell-based, human; conditions: 10 µM ligand for 24 h
Procedure: Target specificity of ligand-dependent gene expression effects was investigated in siRNA-mediated LXRα and β-knockdown foam cells with subsequent qPCR or microarray analysis. Therefore, 2 x 10^5 THP-1 cells/well were differentiated in 24-well plate and induced to foam cells prior to knockdown as described above. Foam cells were transfected using TransIT-TKO transfection reagent (Mirus Bio), for combined knockdown with 15 nM LXRα Silencer Validated siRNA (Ambion, ID 5458) and 15 nM LXRβ Silencer Select Validated siRNA (Ambion, ID s14684) and with 30 nM LXRα or LXRβ for individual knockdowns, respectively. As control we used 30 nM Silencer Select Negative Control #1 (Ambion). Transfection was carried out for 48 h and followed by treatment with 10 µM ligand or vehicle control for 24 h.
(§2) Total RNA isolation and purification was performed by using the RNeasy Mini Kit (QIAGEN) and RNase-Free DNase Set (QIAGEN). cDNA was generated by reverse transcription using the High Capacity cDNA Reverse Transcription Kit (Applied Biosystems). Gene expression was quantified using the SYBR Green PCR Master Mix (Applied Biosystems) and ABI 7900HT Fast Real Time PCR System (Applied Biosystems). In each reaction 0.8 ng/µL cDNA and 0.2 µM primers were used. Gene expression was calculated with the ΔΔCt-method. β-Actin was used for normalisation.

macrophages [5] = experiment: microarray genome-wide gene expression and GSEA in macrophages; format: cell-based, human; conditions: 10 µM
Procedure: Microarray analyses were performed according to instructions of Illumina's TotalPrep RNA Amplification Kit followed by hybridisation on HumanHT-12 v3 or HumanHT-12 v4 Expression BeadChips (illumina). Data analysis was performed with GenomeStudio V2011.1 (illumina). Differential expression analysis was performed on background-subtracted data with cubic spline normalization and Benjamini-Hochberg FDR correction. Significant data was considered to have a detection p-value of ≤ 0.01 and differential expression p-value of ≤ 0.05 according to Illumina's t-test error model. […] Bead array data were validated by quantitative real-time PCR. The Gene Distance Matrix was conducted in Euclidean space using the MeV 4.3 software tool [Saeed A.I. et al. Biotechniques (2003), 34, 374-378]. Gene Set Enrichment Analysis (GSEA) was performed as described elsewhere [Subramanian A. et al. Proc. Natl. Acad. Sci. (2005) 102, 15545-15550] with the following parameters: 1000 gene set permutations, weighted enrichment statistics, minimal gene set size of 5, and signal-to-noise metric. Enrichment of pathways was tested using the Reactome (v3.0) and the KEGG (v3.0) database from the Molecular Signature Database (MSigDB). Heatmaps were carried out with Mayday 2.8 [Battke F. et al. BMC Bioinformatics (2012), 11, 121]. […]

foam cells [6] = experiment: triglyceride content in foam cells (Triglyceride Assay Kit); format: cell-based, human; conditions: 10 µM, 48 h
Procedure: as §1

foam cells [7] = experiment: microarray genome-wide gene expression and GSEA in foam cells; format: cell-based, human; conditions: 10 µM
Procedure: Microarray analyses were performed according to instructions of Illumina's TotalPrep RNA Amplification Kit followed by hybridisation on HumanHT-12 v3 or HumanHT-12 v4 Expression BeadChips (illumina). Data analysis was performed with GenomeStudio […].1 (illumina). Differential expression analysis was performed on background-subtracted data with cubic spline normalization and Benjamini-Hochberg FDR correction. […] Gene expression data were submitted in MIAME-compliant form to the NCBI Gene Expression Omnibus database (GSE39079). Bead array data were validated by quantitative real-time PCR. The Gene Distance Matrix was conducted in Euclidean space using the MeV 4.3 software tool [[…]. et al. Biotechniques (2003), 34, 374-378]. Gene Set Enrichment Analysis (GSEA) was performed as described elsewhere [Subramanian A. et al. Proc. Natl. Acad. Sci. […] Enrichment of pathways was tested using the Reactome (v3.0) and the KEGG (v3.0) database from the Molecular Signature Database (MSigDB). Heatmaps were carried out with […]. et al. BMC Bioinformatics (2012), 11, 121]. For presentation of treatment effects in the heatmap, the pathway normalized enrichment score (NES) was adjusted with the appropriate FDR as follows: adjustedNES = (1-FDR) x NES.

THP-1 macrophages [8] = experiment: CellTiter-Glo viability assay in THP-1 macrophages; format: cell-based, human
Procedure: (§3) For generating macrophages differentiation was induced by 10^-8 M Phorbol 12-myristate 13-acetate (PMA) (Sigma-Aldrich) for 48 h. Ligand treatment of macrophages was performed for further 24 h. To induce foam cell formation macrophages were treated for additional 48 h with 100 µg/mL modified human oxidized low density lipoprotein (oxLDL) obtained from Source BioScience (RP-048). Ligand treatment was performed simultaneously with foam cell formation. Cholesterol loading and treatment was controlled with Oil Red O staining (Alfa Aeser). To investigate ligand induced effects on cell proliferation of THP-1 macrophages CellTiter-Glo Luminescent Cell Viability Assay (Promega) was utilized.

THP-1 macrophages [9] = experiment: qPCR gene expression of LXRα target genes in THP-1 macrophages; format: cell-based, human; conditions: 10 µM
Procedure: as §3, §2

## COc1cc(-c2ccc(O)cc2)c(OC)c(O)c1C1=CC(=O)OC1CC(=O)O (stereo not drawn) [NP 1, 2-(3-(3,4'-dihydroxy-2,5-dimethoxybiphenyl-4-yl)-5-oxo-2,5-dihydrofuran-2-yl)acetic acid]
HepG2 cells
  p53 acetylation in the nuclear fraction: significant increase of p53 acetylation
SIRT1; Table 3, corrected values (see Table 5), read-out: IC50 values
  IC50: 9.7 ± 0.7 µM
SIRT1; corrected by conversion factor according to Wu et al., read-out: Corrected IC50
  IC50: 9.7 ± 0.7 µM
SIRT1; uncorrected, not at initial velocity conditions, read-out: Obtained IC50'
  IC50: 13 ± 1 µM

## O=S(=O)(c1ccccc1)N(CC(F)(F)F)c1ccc(C(O)(C(F)(F)F)C(F)(F)F)cc1 [T09, reference compound]
Foam cells [1]
  total and esterified cholesterol content: significant reduction of total and esterified cholesterol content
Macrophages [2]
  triglyceride level: stayed unchanged
[3]; +DMSO, reporter gene transcription vs. T09
  Efficacy: 100%
[3]; reporter-gene assays with LXRα and LXRβ LBD
  specificity LXRα vs. LXRβ: bound to LXRα and LXRβ with similar affinity
Foam cells [4]
  gene expression of LXRα and ABCA1 after LXRα/β knockdown: significant reduction of LXRα and ABCA1 expression
Macrophages [5]
  expression of genes involved in lipid metabolism processes: activated
Foam cells [6]
  triglyceride levels: increased triglyceride levels
Foam cells [7]
  Lipid metabolism processes (gene set enrichment): comparably up-regulated
  triacylglyceride biosynthesis (transcriptional regulation): transcriptionally induced
THP-1 macrophages [8]
  no cytotoxic effects / no reduction of cellular viability up to: no cytotoxic effects
THP-1 macrophages [9]
  expression of LXRα target genes (LXRα, SREBF1, ABCA1, APOE): increased expression of LXRα target genes
